Measured values reported in patent publication US20120252853A1, “Positive allosteric modulators of nicotinic acetylcholine receptor” (H. Lundbeck A/S, priority 2011, published 2012).

target: human α7 receptor (Homo sapiens, UniProt P36544); experiment: α7 NNR flux assay (FDSS Ca assay); format: cell-based; conditions: positive allosteric modulation; rat GH4C1 cell line stably expressing human α7; acetylcholine 20 μM; % modulation relative to PNU-120596 set to 100%
Experimental: In this version of the assay, the human α7 receptor is stably expressed in the rat GH4C1 cell line. The assay was used to identify positive allosteric modulators (PAMs) of the α7 receptor. Activation of the channel was measured by loading cells with the calcium-sensitive fluorescent dye Calcium-4 (Assay kit from Molecular Devices), and then measuring real-time changes in fluorescence upon treatment with test compounds.
The cell line ChanClone GH4C1-nAChRalpha7 from Genionics was seeded from frozen stock in 384-well plates in culture media 2-3 days before experiment to form an approximately 80% confluent layer on the day of experiment.
The cell culture were split into “22.5 cm×22.5 cm”-plates with approximately 100×10^3 cells/cm^2. After four days incubation in a humidified incubator at 37° C. and 5% CO2, it had grown to an 80-90% confluent layer, and the cells were harvested.
Two or three days before the experiment the cells were seeded in 384 well plates from Greiner bio-one (781946, CELLCOAT, Poly-D-Lysine, black, μClear).
The cells were seeded in 384 well plates with 30 μL/well (30000 cells/well) while stirring the cell suspension or otherwise preventing the cells from precipitating. The plates were incubated at room temperature for 30-45 minutes. The plates were placed in incubator for two days (37° C. and 5% CO2).
The loading buffer was 5% v/v Calcium-4 Kit and 2.5 mM Probenecid in assay buffer.
Culture media were removed from the cell plates and 20 μL loading buffer was added in each well. The cell plates were placed in trays and incubated 90 minutes in the incubator (37° C.). Thereafter the plates were incubated 30 minutes at room temperature, still protected from light. Now the cell plates were ready to run in the Functional Drug Screening System (FDSS) The assay buffer was HBSS with 20 mM HEPES, pH 7.4 and 3 mM CaCl2.
200 nL 10 mM compound solution in DMSO was diluted in 50 μL assay buffer. The final test concentrations in the cell plates were 20-10-5-2.5-1.25-0.625-0.312-0.156-0.078-0.039 μM. Assay buffer and 3 μM PNU-120596 were used for control:
The agonist acetylcholine was added to a final concentration of 20 μM (˜EC100). In the FDSS7000 the Ex480-Em540 was measured with 1 second intervals. The baseline was made of 5 frames before addition of test compounds, and 95 frames more were made before addition of acetylcholine. The measurement stopped 30 frames after the 2nd addition. Raw data for each well were collected as “the maximum fluorescence count” in the interval 100-131 seconds and as “the average fluorescence count” in the interval 96-100 seconds. The positive allosteric modulation in the 2nd addition was the enhancement of agonist response with test compound compared to agonist alone.
Results were calculated as % modulation of test compound compared to the reference PNU-120596 set to 100%.

Chain of human α7 receptor (P36544 23-502): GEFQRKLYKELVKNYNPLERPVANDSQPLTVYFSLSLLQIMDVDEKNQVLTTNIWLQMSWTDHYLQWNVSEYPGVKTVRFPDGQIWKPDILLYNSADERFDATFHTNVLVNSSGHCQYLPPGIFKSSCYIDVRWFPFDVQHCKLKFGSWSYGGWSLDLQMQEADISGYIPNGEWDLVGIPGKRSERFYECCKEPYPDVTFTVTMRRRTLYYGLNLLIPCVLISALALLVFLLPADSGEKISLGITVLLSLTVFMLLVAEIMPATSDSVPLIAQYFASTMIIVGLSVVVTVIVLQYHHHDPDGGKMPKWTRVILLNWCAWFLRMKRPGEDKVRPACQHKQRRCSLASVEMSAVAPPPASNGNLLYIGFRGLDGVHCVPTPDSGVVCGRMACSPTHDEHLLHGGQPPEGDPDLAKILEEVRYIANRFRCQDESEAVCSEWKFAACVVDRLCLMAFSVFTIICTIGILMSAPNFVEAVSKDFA

SMILES | EC50
Cc1cc2cc(C(C)NC(=O)c3oncc3C)ccc2[nH]1 (racemic) [Compound 16, 4-methyl-N-[1-(2-methyl-1H-indol-5-yl)ethyl]isoxazole-5-carboxamide] | 11 µM
COc1cc(C(=O)NC(C)c2ccc3[nH]c(C)cc3c2)on1 (racemic) [Compound 18, 3-methoxy-N-[1-(2-methyl-1H-indol-5-yl)ethyl]isoxazole-5-carboxamide] | 6.7 µM
Cc1cc(C(=O)NC(C)c2ccc3[nH]c(C)cc3c2)on1 (racemic) [Compound 33, 3-methyl-N-[1-(2-methyl-1H-indol-5-yl)ethyl]isoxazole-5-carboxamide] | 2.63 µM
Cc1cc2cc(CNC(=O)c3sc(C)nc3C)ccc2[nH]1 [Compound 2, 2,4-dimethyl-N-[(2-methyl-1H-indol-5-311)methyl]thiazole-5-carboxamide] | 9.8 µM
Cc1cc2cc(CNC(=O)c3ccc(Cl)s3)ccc2[nH]1 [Compound 3, 5-Chloro-thiophene-2-carboxylic acid (2-methyl-1H-indol-5-ylmethyl)-amide] | 0.13 µM
Cc1cc2cc(CNC(=O)c3sccc3Cl)ccc2[nH]1 [Compound 4, 3-chloro-N-[(2-methyl-1H-indol-5-yl)methyl]thiophene-2-carboxamide] | 2.9 µM
Cc1cc2cc(CNC(=O)c3cscn3)ccc2[nH]1 [Compound 5, N-[(2-methyl-1H-indol-5-yl)methyl]thiazole-4-carboxamide] | 4.4 µM
Cc1cc2cc(CNC(=O)c3ccsc3)ccc2[nH]1 [Compound 6, N-[(2-methyl-1H-indol-5-yl)methyl]thiophene-3-carboxamide] | 0.52 µM
Cc1cc2cc(CNC(=O)c3cc(C)oc3C)ccc2[nH]1 [Compound 7, 2,5-dimethyl-N-[(2-methyl-1H-indol-5-yl)methy]furan-3-carboxamide] | 1.4 µM
Cc1cc2cc(CNC(=O)c3cc(C)on3)ccc2[nH]1 [Compound 8, 5-methyl-N-[(2-methyl-1H-indol-5-yl)methyl]isoxazole-3-carboxamide] | 3.2 µM
Cc1cc2cc(CNC(=O)c3sccc3C)ccc2[nH]1 [Compound 9, 3-methyl-N-[(2-methyl-1H-indol-5-yl)methyl]thiophene-2-carboxamide] | 1.8 µM
Cc1cc2cc(CNC(=O)c3ccco3)ccc2[nH]1 [Compound 10, N-[(2-methyl-1H-indol-5-yl)methyl]furan-2-carboxamide] | 4 µM
Cc1cc2cc(CNC(=O)c3ccoc3)ccc2[nH]1 [Compound 11, N-[(2-methyl-1H-indol-5-yl)methyl]furan-3-carboxamide] | 2.4 µM
Cc1cc2cc(CNC(=O)c3cc(C)n(C)n3)ccc2[nH]1 [Compound 12, 1,5-dimethyl-N-[(2-methyl-1H-indol-5-yl)methyl]pyrazole-3-carboxamide] | 9.1 µM
Cc1cc2cc(CNC(=O)c3cccs3)ccc2[nH]1 [Compound 13, N-[(2-methyl-1H-indol-5-yl)methyl]thiophene-2-carboxamide] | 0.53 µM
Cc1cc2cc(CNC(=O)c3ccc[nH]3)ccc2[nH]1 [Compound 14, N-[(2-methyl-1H-indol-5-yl)methyl]-1H-pyrrole-2-carboxamide] | 7.4 µM
Cc1cc2cc(CNC(=O)c3oncc3C)ccc2[nH]1 [Compound 15, 4-methyl-N-[(2-methyl-1H-indol-5-yl)methyl]isoxazole-5-carboxamide] | 9.6 µM
Cc1cc(C(=O)NCc2ccc3[nH]cc(C)c3c2)on1 [Compound 17, 3-methyl-N-[(3-methyl-1H-indol-5-34)methyl]isoxazole-5-carboxamide] | 11 µM
COc1cc(C(=O)NCc2ccc3[nH]c(C)cc3c2)on1 [Compound 19, 3-methoxy-N-[(2-methyl-1H-indol-5-yl)methyl]isoxazole-5-carboxamide] | 4.6 µM
Cc1cc2cc(CNC(=O)c3nccs3)ccc2[nH]1 [Compound 20, N-[(2-methyl-1H-indol-5-yl)methyl]thiazole-2-carboxamide] | 3.3 µM
Cc1cc2cc(CNC(=O)c3ocnc3C)ccc2[nH]1 [Compound 22, 4-methyl-N-[(2-methyl-1H-indol-5-yl)methyl]oxazole-5-carboxamide] | 7.2 µM
Cc1cc(C(=O)NCc2cc(C)c3[nH]ccc3c2)on1 [Compound 23, 3-methyl-N-[(7-methyl-1H-indol-5-yl)methyl]isoxazole-5-carboxamide] | 7.1 µM
Cc1cc2cc(CNC(=O)c3csc(C)n3)ccc2[nH]1 [Compound 25, 2-methyl-N-[(2-methyl-1H-indol-5-yl)methyl]thiazole-4-carboxamide] | 4.7 µM
Cc1cc2cc(CNC(=O)c3ccno3)ccc2[nH]1 [Compound 26, N-[(2-methyl-1H-indol-5-yl)methyl]isoxazole-5-carboxamide] | 7.37 µM
Cc1cc2cc(CNC(=O)c3c(C)noc3C)ccc2[nH]1 [Compound 27, 3,5-dimethyl-N-[(2-methyl-1H-indol-5-yl)methyl]isoxazole-4-carboxamide] | 0.44 µM
Cc1cc2cc(CNC(=O)c3cc(=O)n(C)[nH]3)ccc2[nH]1 [Compound 32, 2-methyl-N-[(2-methyl-1H-indol-5-yl)methyl]-3-oxo-1H-pyrazole-5-carboxamide] | 11 µM
Cc1cc2cc(CNC(=O)c3ccn(C)c3)ccc2[nH]1 [Compound 37, 1-methyl-N-[(2-methyl-1H-indol-5-yl)methyl]pyrrole-3-carboxamide] | 9.8 µM

Now from value to compound:

EC50 | SMILES
5.2 µM | Cc1cc(C(=O)NC(C)c2ccc3[nH]c(C(F)(F)F)cc3c2)on1 (single isomer, unassigned) [Compound 97, 3-methyl-N-[1-[2-(trifluoromethyl)-1H-indol-5-yl]ethyl]isoxazole-5-carboxamide]
5.9 µM | Cc1cc(C(=O)NC(C)c2ccc3[nH]ccc3c2)on1 (stereo not shown) [Compound 38, N-[1-(1H-indol-5-yl)ethyl]-3-methyl-isoxazole-5-carboxamide]
9.1 µM | Cc1cc(C(=O)NCc2cc3cc[nH]c3cc2C)on1 [Compound 39, 3-methyl-N-[(6-methyl-1H-indol-5-yl)methyl]isoxazole-5-carboxamide]
7.7 µM | Cc1cc(C(=O)NCc2ccc3[nH]c(C)c(C)c3c2)on1 [Compound 41, N-[(2,3-dimethyl-1H-indol-5-yl)methyl]-3-methyl-isoxazole-5-carboxamide]
5.6 µM | Cc1cc2cc([C@@H](C)NC(=O)c3cnc(C)s3)ccc2[nH]1 [Compound 42, 2-methyl-N-[(1R)-1-(2-methyl-1H-indol-5-yl)ethyl]thiazole-5-carboxamide]
2.2 µM | CCn1cc(C(=O)N[C@H](C)c2ccc3[nH]c(C)cc3c2)cn1 [Compound 43, 1-ethyl-N-[(1R)-1-(2-methyl-1H-indol-5-yl)ethyl]pyrazole-4-carboxamide]
6.1 µM | Cc1cc2cc([C@@H](C)NC(=O)c3cnn(C)c3)ccc2[nH]1 [Compound 44, 1-methyl-N-[(1R)-1-(2-methyl-1H-indol-5-yl)ethyl]pyrazole-4-carboxamide]
1.5 µM | Cc1cc(C(=O)N[C@@H](c2ccc3[nH]c(C)cc3c2)C(F)(F)F)on1 [Compound 45, 3-methyl-N-[(1S)-2,2,2-trifluoro-1-(2-methyl-1H-indol-5-yl)ethyl]isoxazole-5-carboxamide]
3.5 µM | COCCn1cc(C(=O)N[C@H](C)c2ccc3[nH]c(C)cc3c2)cn1 [Compound 46, 1(2-methoxyethyl)-N-[(1R)-1-(2-methyl-1H-indol-5-yl)ethyl]pyrazole-4-carboxamide]
1.7 µM | Cc1cc2cc([C@@H](C)NC(=O)c3cnn(CCF)c3)ccc2[nH]1 [Compound 48, 1-(2-fluoroethyl)-N-[(1R)-1-(2-methyl-1H-indol-5-yl)ethyl]pyrazole-4-carboxamide]
6.5 µM | Cc1cc2cc(CNC(=O)c3cnn(C4COC4)c3)ccc2[nH]1 [Compound 49, N-[(2-methyl-1H-indol-5-yl)methyl]-1-(oxetan-3-yl)pyrazole-4-carboxamide]
8.5 µM | Cc1cc2cc(CNC(=O)c3cnc(C)o3)ccc2[nH]1 [Compound 50, 2-methyl-N-[(2-methyl-1H-indol-5-yl)methyl]oxazole-5-carboxamide]
6.1 µM | Cc1cc2cc(CNC(=O)c3cnn(C4CCOC4)c3)ccc2[nH]1 (stereo not shown) [Compound 51, N-[(2-methyl-1H-indol-5-yl)methyl]-1-tetrahydrofuran-3-yl-pyrazole-4-carboxamide]
